Positions of bridges follow the written chain, without caps; N, C: chain ends. Non-standard residues stand in square brackets, D forms with d. Residues, ends and D or L forms follow the SMILES beside them. Chains are numbered I, II in the order given. Nva = CCC[C@H](N)C(=O)O
Experiments:
[1] = system: LPS (E. coli serotype 055:B5); test: BODIPY TR cadaverine (BC) displacement assay with LPS; assay type: binding; conditions: no unit in table; ED50 values in μM; 5 mM HEPES pH 7.4; duplicates; read-out: BC50 (LPS binding)
Method in brief: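 Peptides (0.02–25.6 μM, two-fold dilutions) mixed 1:1 with BODIPY TR cadaverine:LPS (E. coli 055:B5) mixture in 5 mM HEPES pH 7.4; fluorescence at 580/620 nm. Displacement normalized to polymyxin B (Fmax) and probe:LPS alone (F0); ED50 from curve fit, duplicates.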

P. aeruginosa ATCC 27853 [2] = test: microbe, parasite or virus in culture; assay type: cell-based; conditions: ATCC 27853, 24 h
Method in brief: (§1)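 Peptides two-fold diluted in Mueller-Hinton Broth (0.0976–50 μg/ml final) against 10^5–10^6 CFU/ml inoculum, 37 °C for 24 h with OD600 monitored every 30 min. MIC = lowest concentration with no visible growth; two independent duplicates.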

K. pneumoniae ATCC10031 = assay type: cell-based; conditions: ATCC10031, 24 h
Method in brief: as §1

P. aeruginosa 23155 = assay type: cell-based; conditions: 23155, 24 h
Method in brief: as §1

K. pneumonia 4299 = test: microbe, parasite or virus in culture; assay type: cell-based, K. pneumoniae; conditions: 24 h
Method in brief: as §1

P. aeruginosa ATCC 27853 [3] = assay type: cell-based; conditions: second number in parenthesis; ATCC 27853
Method in brief: (§2)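 Checkerboard combinations of peptide and antibiotic, each 2-fold diluted up to 1× MIC in MHB, were tested against ~10^6 CFU/ml final inoculum. Plates were incubated 24 h at 37 °C, with growth read at OD600. FICI was the sum of the combination-to-alone MIC ratios for each agent, and the lowest FICI from duplicate experiments was reported.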

P. aeruginosa DR4877/07 = assay type: cell-based
Method in brief: as §2

P. aeruginosa ATCC 9027 = test: Outer membrane permeability assay (NPN); assay type: cell-based; conditions: no unit in table; Fig. S5 axis [Peptide], μM; 10 μM NPN, 5 mM HEPES pH 7.4, ex 355/em 405 nm; average of two titrations; read-out: PC50 (peptide concentration for half-maximal NPN intensity, OM permeability)
Method in brief: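 Overnight MHB-grown cells were washed and resuspended in 5 mM HEPES pH 7.4 to OD600 0.200, then loaded with 10 μM NPN (final), with peptide titrated in after dye stabilization. Fluorescence ex 355/em 405 nm; PC50 is the peptide concentration giving half-maximal intensity, from a sigmoidal fit averaged over two titrations.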

`CCC[C@H](NC(=O)[C@H](CCCCN)NC(=O)[C@H](CCCNC(=N)N)NC(=O)CNC(=O)[C@@H](N)CCCNC(=N)N)C(=O)N[C@@H](CCC)C(=O)N[C@@H](CCCNC(=N)N)C(=O)N[C@@H](CCCNC(=N)N)C(=O)NCCCC[C@H](NC(=O)[C@H](CCCNC(=N)N)NC(=O)[C@H](CCCNC(=N)N)NC(=O)[C@H](CCC)NC(=O)[C@H](CCC)NC(=O)[C@H](CCCCN)NC(=O)[C@H](CCCNC(=N)N)NC(=O)CNC(=O)[C@@H](N)CCCNC(=N)N)C(=O)N[C@@H](CCCCN)C(=O)O` [(RGRKNvalNvalRR)2KK] (I: H-RGRK[Nva][Nva]RRKK-OH / II: H-RGRK[Nva][Nva]RR; amide I:9-II:C; N-terminus and C-terminus assumed) was tested, and the EC50 [1] was 1.45 ± 0.01 µM, the “Minimum Inhibitory Concentration against P. aeruginosa ATCC 27853” value (P. aeruginosa ATCC 27853 [2]) was 10.9 µM and the “Minimum Inhibitory Concentration against K. pneumoniae ATCC10031” value (K. pneumoniae ATCC10031) was 10.9 µM. The “Minimum Inhibitory Concentration against P. aeruginosa 23155” value (P. aeruginosa 23155) was 5.5 µM, the “Minimum Inhibitory Concentration against K. pneumonia 4299” value (K. pneumonia 4299) was 21.8 µM and the “Fractional inhibitory concentration of antibiotic, Genta combination” value (P. aeruginosa ATCC 27853 [3]) was 0.13. The “Fractional inhibitory concentration of peptide/PMB, combination with Chloarm” value (P. aeruginosa DR4877/07; first number in parenthesis) was “(0.25,0.25)”, the “Fractional inhibitory concentration of peptide/PMB, combination with Erythro” value (P. aeruginosa DR4877/07; first number in parenthesis) was “(0.5,0.5)” and the “Fractional inhibitory concentration of peptide/PMB, combination with Levo” value (P. aeruginosa DR4877/07; first number in parenthesis) was 0.5. The “Fractional inhibitory concentration of peptide/PMB, combination with Tobra” value (P. aeruginosa DR4877/07; first number in parenthesis) was 0.25, the “Fractional inhibitory concentration of antibiotic, Chloarm combination” value (P. aeruginosa DR4877/07; second number in parenthesis) was “(0.25,0.25)” and the “Fractional inhibitory concentration of antibiotic, Erythro combination” value (P. aeruginosa DR4877/07; second number in parenthesis) was “(0.5,0.5)”. For the same compound, the “Fractional inhibitory concentration of antibiotic, Levo combination” value (P. aeruginosa DR4877/07; second number in parenthesis) was 0.25, the “Fractional inhibitory concentration of antibiotic, Tobra combination” value (P. aeruginosa DR4877/07; second number in parenthesis) was 0.13 and the EC50 (P. aeruginosa ATCC 9027) was 14.9 ± 1.2 µM.

— PMC4865820, “Branched Peptide, B2088, Disrupts the Supramolecular Organization of Lipopolysaccharides and Sensitizes the Gram-negative Bacteria” (Scientific Reports, 2016)
